The record followed here is patent publication US7951802B2, “Use of 7-azaindoles in the inhibition of c-Jun N-terminal kinase” (Eisai R&D Management Co., Ltd., priority 2007, dated 2011).

This assay deals with JNK3 (Homo sapiens, UniProt P53779). The assay is described as follows: JNK3 SPA assay (phosphorylation of GST-c-Jun). It is filed as biochemical. The following applies: 3.33 μM ATP, GST-c-Jun substrate, read-out: IC50 against JNK3. The protocol: JNK1, JNK2, JNK3—SPA Assay
Chain of JNK3 (P53779 whole entry, species assumed): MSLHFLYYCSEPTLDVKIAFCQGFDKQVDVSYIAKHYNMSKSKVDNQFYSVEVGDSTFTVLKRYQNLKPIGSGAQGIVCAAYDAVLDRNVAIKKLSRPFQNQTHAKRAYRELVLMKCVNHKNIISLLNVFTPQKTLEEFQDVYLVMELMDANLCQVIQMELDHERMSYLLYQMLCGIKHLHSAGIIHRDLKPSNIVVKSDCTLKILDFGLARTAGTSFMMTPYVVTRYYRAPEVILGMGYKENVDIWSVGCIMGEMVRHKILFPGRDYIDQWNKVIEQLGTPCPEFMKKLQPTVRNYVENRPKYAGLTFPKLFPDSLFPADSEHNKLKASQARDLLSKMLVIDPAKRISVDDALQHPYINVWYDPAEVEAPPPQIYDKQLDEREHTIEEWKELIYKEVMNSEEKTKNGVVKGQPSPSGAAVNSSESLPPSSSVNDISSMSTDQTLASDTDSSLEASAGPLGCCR
JNK1, JNK2, JNK3—SPA Assay • 1. Compound is dissolved in DMSO to a convenient concentration and this is diluted in 10% DMSO to a five times concentrate of the desired starting concentration (frequently 1:100). • 2. 10 μl of 500 mM EDTA is added to alternative wells of the Opti-plate row, which will receive kinase reaction plus DMSO. This creates the negative control. • 3. For the JNK2 and JNK3 assay, compounds are prepared in six 2-fold dilutions with water and each concentration is tested in duplicate. For the JNK1 assay compounds are prepared in four 5-fold dilutions with water which are tested in triplicate. Controls are treated identically. • 4. 20 μl per well of each compound concentration is transferred to an Opti-plate, in duplicate. • 5. 30 μl (JNK2/3 SPA) or 50 μl (JNK1 SPA) of substrate solution (25 mM HEPES pH 7.5, 10 mM magnesium acetate with 3.33 μM ATP (JNK2/3) or 2 μM ATP (JNK1), approximately 7.5 kBq [γ-^33P] ATP, GST-c-Jun, in water) is added to each well. • 6. 50 μl (JNK2/3 SPA) or 30 μl (JNK1 SPA) of kinase solution (JNK in 25 mM HEPES pH 7.5, 10 mM Mg Acetate) is added to each well.
• 7. The plate is incubated for 30 minutes at room temperature. • 8. 100 μl of bead/stop solution is added to each well (5 mg/ml glutathione-PVT-SPA beads, 40 mM ATP in PBS). • 9. Plates are sealed and incubated for 30 minutes at room temperature, centrifuged for 10 minutes at 2500 g and counted. • 10. The IC50 values are calculated as the concentration of the compound being tested at which the phosphorylation of c-Jun is decreased to 50% of the control value.
With `CN1CCC(c2nc(-c3c[nH]c4ncc(C5=CCCC5)cc34)cs2)CC1` [Compound I-1, 5-Cyclopent-1-enyl-3-[2-(1-methyl-piperidin-4-yl)-thiazol-4-yl]-1H-pyrrolo[2,3-b]pyridine], the IC50 is 434 nM.

As to `O=C(c1nc(-c2c[nH]c3ncc(C4=CCCC4)cc23)cs1)N1CCOCC1` [Compound I-3, [4-(5-Cyclopent-1-enyl-1H-pyrrolo[2,3-b]pyridin-3-yl)-thiazol-2-yl]-morpholin-4-yl-methanone], the half-maximal inhibitory concentration (IC50) is 38 nM.

Regarding `O=C(c1nc(-c2c[nH]c3ncc(C4=CCCC4)cc23)cs1)N1CCCCC1` [Compound I-4, [4-(5-Cyclopent-1-enyl-1H-pyrrolo[2,3-b]pyridin-3-yl)-thiazol-2-yl]-piperidin-1-yl-methanone], the IC50 amounted to 251 nM.

For the molecule `CN1CCN(C(=O)c2nc(-c3c[nH]c4ncc(C5=CCCC5)cc34)cs2)CC1` [Compound I-5, [4-(5-Cyclopent-1-enyl-1H-pyrrolo[2,3-b]pyridin-3-yl)-thiazol-2-yl]-(4-methyl-piperazin-1-yl)-methanone], the half-inhibitory concentration (IC50) was 86 nM.

As for `O=C(c1nc(-c2c[nH]c3ncc(C4CCCCC4)cc23)cs1)N1CCCCC1` [Compound I-7, [4-(5-Cyclohexyl-1H-pyrrolo[2,3-b]pyridin-3-yl)-thiazol-2-yl]-piperidin-1-yl-methanone], the concentration for half-maximal inhibition (IC50) amounted to 238 nM.

Regarding `O=C(c1nc(-c2c[nH]c3ncc(C4CCCCC4)cc23)cs1)N1CCOCC1` [Compound I-8, [4-(5-Cyclohexyl-1H-pyrrolo[2,3-b]pyridin-3-yl)-thiazol-2-yl]-morpholin-4-yl-methanone], the IC50 was found to be 111 nM.

On to `CN(C)C(=O)c1nc(-c2c[nH]c3ncc(C4CCCCC4)cc23)cs1` [Compound I-9, 4-[5-cyclohexyl-1H-pyrrolo[2,3-b]pyridin-3-yl]-thiazole-2-carboxylic acid dimethylamide], for which the concentration for half-maximal inhibition (IC50) amounted to 147 nM.

With `CN1CCN(C(=O)c2nc(-c3c[nH]c4ncc(C5CCCCC5)cc34)cs2)CC1` [Compound I-10, [4-(5-Cyclohexyl-1H-pyrrolo[2,3-b]pyridin-3-yl)-thiazol-2-yl]-(4-methyl-piperazin-1-yl)-methanone], the IC50 came out at 63 nM.

With `CN1CCC(c2nc(-c3c[nH]c4ncc(C5CCCCC5)cc34)cs2)CC1` [Compound I-11, 5-Cyclohexyl-3-[2-(1-methyl-piperidin-4-yl)-thiazol-4-yl]-1H-pyrrolo[2,3-b]pyridine], the IC50 was 240 nM.

In the case of `CC1CC=C(c2cnc3[nH]cc(-c4csc(C(=O)N5CCOCC5)n4)c3c2)CC1` (stereo not shown) [Compound I-13, {4-[5-(4-Methyl-cyclohex-1-enyl)-1H-pyrrolo[2,3-b]pyridin-3-yl]-thiazol-2-yl}-morpholin-4-yl-methanone], the IC50 is 151 nM.

For the molecule `CC1CC=C(c2cnc3[nH]cc(-c4csc(C(=O)N5CCN(C)CC5)n4)c3c2)CC1` (stereo not shown) [Compound I-14, {4-[5-(4-Methyl-cyclohex-1-enyl)-1H-pyrrolo[2,3-b]pyridin-3-yl]-thiazol-2-yl}-(4-methyl-piperazin-1-yl)-methanone], the IC50 was found to be 105 nM.

In the case of `CC1(C)C=CC(c2cnc3[nH]cc(-c4csc(C(=O)N5CCOCC5)n4)c3c2)=CC1` [Compound I-16, {4-[5-(4,4-Dimethyl-cyclohexa-1,5-dienyl)-1H-pyrrolo[2,3-b]pyridin-3-yl]-thiazol-2-yl}-morpholin-4-yl-methanone], the IC50 was found to be 395 nM.

In the case of `CN1CCN(C(=O)c2nc(-c3c[nH]c4ncc(C5=CCC(C)(C)C=C5)cc34)cs2)CC1` [Compound I-17, {4-[5-(4,4-Dimethyl-cyclohexa-1,5-dienyl)-1H-pyrrolo[2,3-b]pyridin-3-yl]-thiazol-2-yl}-(4-methyl-piperazin-1-yl)-methanone], the IC50 stood at 40 nM.

On to `CC1CCC(c2cnc3[nH]cc(-c4csc(C(=O)N(C)C)n4)c3c2)CC1` (stereo not shown) [Compound I-19, 4-[5-(4-Methyl-cyclohexyl)-1H-pyrrolo[2,3-b]pyridin-3-yl]-thiazole-2-carboxylic acid dimethylamide], for which the half-maximal inhibitory concentration (IC50) stood at 117 nM.

For the molecule `CC1CCC(c2cnc3[nH]cc(-c4csc(C(=O)N5CCCCC5)n4)c3c2)CC1` (stereo not shown) [Compound I-20, {4-[5-(4-Methyl-cyclohexyl)-1H-pyrrolo[2,3-b]pyridin-3-yl]-thiazol-2-yl}-piperidin-1-yl-methanone], the concentration for half-maximal inhibition (IC50) is 138 nM.

With `CC1CCC(c2cnc3[nH]cc(-c4csc(C(=O)N5CCOCC5)n4)c3c2)CC1` (stereo not shown) [Compound I-21, {4-[5-(4-Methyl-cyclohexyl)-1H-pyrrolo[2,3-b]pyridin-3-yl]-thiazol-2-yl}-morpholin-4-yl-methanone], the half-maximal inhibitory concentration (IC50) was found to be 123 nM.

As for `CC1CCC(c2cnc3[nH]cc(-c4csc(C(=O)N5CCN(C)CC5)n4)c3c2)CC1` (stereo not shown) [Compound I-22, {4-[5-(4-Methyl-cyclohexyl)-1H-pyrrolo[2,3-b]pyridin-3-yl]-thiazol-2-yl}-(4-methyl-piperazin-1-yl)-methanone], the IC50 was determined as 16 nM.

`CN1CCC(c2nc(-c3c[nH]c4ncc(C5CCC6(CC5)OCCO6)cc34)cs2)CC1` [Compound I-23, 5-(1,4-Dioxa-spiro[4.5]dec-8-yl)-3-[2-(1-methyl-piperidin-4-yl)-thiazol-4-yl]-1H-pyrrolo[2,3-b]pyridine]: the half-maximal inhibitory concentration (IC50) is 724 nM.

Regarding `C1=C(c2cnc3[nH]cc(-c4nccs4)c3c2)CCCC1` [Compound I-24, 2-(5-cyclohexenyl-1H-pyrrolo[2,3-b]pyridin-3-yl)thiazole], the half-inhibitory concentration (IC50) is 229 nM.

For `O=C(c1nc(-c2c[nH]c3ncc(C4CCC5(CC4)OCCO5)cc23)cs1)N1CCCCC1` [Compound I-25, {4-[5-(1,4-Dioxa-spiro[4.5]dec-8-yl)-1H-pyrrolo[2,3-b]pyridin-3-yl]-thiazol-2-yl}-piperidin-1-yl-methanone], the IC50 stood at 16 nM.

On to `c1csc(-c2c[nH]c3ncc(C4CCCCC4)cc23)n1` [Compound I-26, 2-(5-cyclohexyl-1H-pyrrolo[2,3-b]pyridin-3-yl)thiazole], for which the IC50 was 324 nM.

For `CCC1CC=C(c2cnc3[nH]cc(-c4csc(C(=O)N5CCOCC5)n4)c3c2)CC1` (stereo not shown) [Compound I-27, {4-[5-(4-Ethyl-cyclohex-1-enyl)-1H-pyrrolo[2,3-b]pyridin-3-yl]-thiazol-2-yl}-morpholin-4-yl-methanone], the concentration for half-maximal inhibition (IC50) came to 447 nM.

On to `O=C(c1nc(-c2c[nH]c3ncc([C@H]4CC[C@@H](N5CCOCC5)CC4)cc23)cs1)N1CCCCC1` [Compound I-30, (4-(5-((1r,4r)-4-morpholinocyclohexyl)-1H-pyrrolo[2,3-b]pyridin-3-yl)thiazol-2-yl)(piperidin-1-yl)methanone], for which the IC50 is 229 nM.

Consider `O=C(c1nc(-c2c[nH]c3ncc([C@H]4CC[C@@H](N5CCOCC5)CC4)cc23)cs1)N1CCOCC1` [Compound I-31, morpholino(4-(5-((1s,4s)-4-morpholinocyclohexyl)-1H-pyrrolo[2,3-b]pyridin-3-yl)thiazol-2-yl)methanone], for which the IC50 was found to be 1330 nM.

Regarding `CN1CCN(C(=O)c2nc(-c3c[nH]c4ncc([C@H]5CC[C@@H](N6CCOCC6)CC5)cc34)cs2)CC1` [Compound I-32, (4-methylpiperazin-1-yl)(4-(5-((1s,4s)-4-morpholinocyclohexyl)-1H-pyrrolo[2,3-b]pyridin-3-yl)thiazol-2-yl)methanone], the concentration for half-maximal inhibition (IC50) was found to be 955 nM.

What is called IC50 is the concentration at which inhibition is half-maximal.
